Target: T1, Ubiquitin carboxyl-terminal hydrolase 30 (Homo sapiens, UniProt Q70CQ3)
T1 sequence (Q70CQ3 whole entry): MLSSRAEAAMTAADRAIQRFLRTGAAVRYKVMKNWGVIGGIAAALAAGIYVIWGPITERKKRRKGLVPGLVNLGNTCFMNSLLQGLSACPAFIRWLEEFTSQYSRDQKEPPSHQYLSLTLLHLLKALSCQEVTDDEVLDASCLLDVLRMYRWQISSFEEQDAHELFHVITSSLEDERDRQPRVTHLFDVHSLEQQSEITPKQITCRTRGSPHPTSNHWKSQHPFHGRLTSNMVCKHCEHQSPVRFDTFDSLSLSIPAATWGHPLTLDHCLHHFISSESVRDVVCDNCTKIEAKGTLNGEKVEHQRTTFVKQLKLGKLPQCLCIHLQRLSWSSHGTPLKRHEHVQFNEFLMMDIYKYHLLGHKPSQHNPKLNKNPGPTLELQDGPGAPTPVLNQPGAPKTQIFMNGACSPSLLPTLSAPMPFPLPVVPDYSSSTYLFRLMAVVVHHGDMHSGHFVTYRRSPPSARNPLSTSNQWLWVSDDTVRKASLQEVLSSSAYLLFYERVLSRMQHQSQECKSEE
Test: Biochemical Fluorescence Intensity Assay
Description: A typical 8-point dilution series would be 100, 30, 10, 3, 1, 0.3, 0.1, 0.03 μM final. […] USP30 was diluted in reaction buffer (40 mM Tris, pH 7.5, 0.005% Tween 20, 0.5 mg/ml BSA, 5 mM beta-mercaptoethanol) to the equivalent of 0.001 μl/well and 10 μl of diluted USP30 was added to the compound. Enzyme and compound were incubated for 30 min at room temp. […] Reactions were read immediately after addition of substrate and following a 2 h incubation at room temperature.

With Cn1ccc(-c2ccc(NC(=O)N3CC[C@@H]4CN(C#N)C[C@@H]43)c(F)c2)n1 [US10343992, Example 245] the IC50 was “in the range around 550 nM”.

CN(C(=O)CC1=NC2C=C(c3cnn(C)c3)N=CC2N1)C1CCN(C#N)C1 (configuration not stated) [US10343992, Example 263] was tested, and the IC50 was “in the range around 550 nM”.
